# Tested on: cholesterol biosynthesis
# Assay: Inhibition of cholesterol biosynthesis (method of J. Biol. Chem. 234, 2835 (1959))
# Type: biochemical
# Details: method of Journal of Biological Chemistry, 234, 2835 (1959)
# Excerpt: The inhibitory activities of certain of the compounds of the invention, in terms of the concentration in μg/ml required to inhibit cholesterol biosynthesis by 50% [measured by the method described in the Journal of Biological Chemistry, 234, 2835 (1959)], are as follows: […]
row,SMILES,concentration required to inhibit cholesterol biosynthesis by 50% [µg/mL]
1,CC[C@H](C)C(=O)O[C@H]1CC=CC2=CC(OC)[C@H](C)[C@H](CC[C@@H]3C[C@@H](O)CC(=O)O3)[C@H]21 (stereo partly drawn) [6-methoxy-IsoML-236B lactone],0.015
2,"CC[C@H](C)C(=O)O[C@H]1CCC=C2C=C[C@H](C)[C@H](CC[C@@H]3C[C@@H](O)CC(=O)O3)[C@H]21 [ML-236B lactone, reference compound]",0.010
3,"CC[C@H](C)C(=O)O[C@H]1CC=CC2=CC(OC)[C@H](C)[C@H](CC[C@@H](O)C[C@@H](O)CC(=O)O)[C@H]21 (stereo partly drawn) [Sodium 6-methoxy-IsoML-236B carboxylate, sodium 6-methoxy-IsoML-236B carboxylate]",0.0044

# — US4447626A, “ML-236B Derivatives” (Sankyo Company Limited, priority 1981, dated 1984)
